Laboratory results from the supplement of paper PMC10307832.

Assays:
Test in all cases: relative viability (nuclei count vs DMSO), 5 days (fraction); higher = more cells survive
LK-2 = test system: LK-2
In short: (§1)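 Relative viability equals treated-well nuclei counts divided by vehicle-well nuclei counts. Counts came from 4× images of lung cancer cell lines grown in 1536-well plates for 5 days after pin-tool dosing on the day after seeding. Dosing used one drug alone or a fixed anchor-drug dose plus five library-drug doses (not always all listed) in √10 steps, and values are medians of duplicate plates.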

NCI-H2085 = test system: NCI-H2085
In short: as §1

SW 1573 = test system: SW 1573
In short: as §1

NCI-H650 = test system: NCI-H650
In short: as §1

NCI-H460 = test system: NCI-H460
In short: as §1

ChaGo-K-1 = test system: ChaGo-K-1
In short: as §1

NCI-H596 = test system: NCI-H596
In short: as §1

NCI-H1944 = test system: NCI-H1944
In short: as §1

NCI-H2347 = test system: NCI-H2347
In short: as §1

A-427 = test system: A-427
In short: as §1

NCI-H1666 = test system: NCI-H1666
In short: as §1

NCI-H520 = test system: NCI-H520
In short: as §1

NCI-H358 = test system: NCI-H358
In short: as §1

NCI-H441 = test system: NCI-H441
In short: as §1

NCI-H1355 = test system: NCI-H1355
In short: as §1

NCI-H322M = test system: NCI-H322M
In short: as §1

NCI-H1650 = test system: NCI-H1650
In short: as §1

NCI-H838 = test system: NCI-H838
In short: as §1

NCI-H3122 = test system: NCI-H3122
In short: as §1

H3255 = test system: H3255
In short: as §1

NCI-H1755 = test system: NCI-H1755
In short: as §1

EKVX = test system: EKVX
In short: as §1

## O=C(O)CCCCC(CCSCc1ccccc1)SCc1ccccc1 (centres undefined) [CPI-613] + Nc1ncn([C@H]2C[C@H](O)[C@@H](CO)O2)c(=O)n1 [Decitabine] (partner 2 µM)
LK-2; first compound 5 µM
  relative viability: 0.336
LK-2; first compound 15.81 µM
  relative viability: 0.274
LK-2; first compound 50 µM
  relative viability: 0.275
LK-2; first compound 158.11 µM
  relative viability: 0.313
LK-2; first compound 500 µM
  relative viability: 0.283
NCI-H2085; first compound 5 µM
  relative viability: 0.536
NCI-H2085; first compound 15.81 µM
  relative viability: 0.525
NCI-H2085; first compound 50 µM
  relative viability: 0.568
NCI-H2085; first compound 158.11 µM
  relative viability: 0.437
NCI-H2085; first compound 500 µM
  relative viability: 0.208
SW 1573; first compound 5 µM
  relative viability: 0.437
SW 1573; first compound 15.81 µM
  relative viability: 0.399
SW 1573; first compound 50 µM
  relative viability: 0.498
SW 1573; first compound 158.11 µM
  relative viability: 0.207
SW 1573; first compound 500 µM
  relative viability: 0.0549
NCI-H650; first compound 5 µM
  relative viability: 0.314
NCI-H650; first compound 15.81 µM
  relative viability: 0.295
NCI-H650; first compound 50 µM
  relative viability: 0.299
NCI-H650; first compound 158.11 µM
  relative viability: 0.321
NCI-H650; first compound 500 µM
  relative viability: 0.288
NCI-H460; first compound 5 µM
  relative viability: 0.513
NCI-H460; first compound 15.81 µM
  relative viability: 0.396
NCI-H460; first compound 50 µM
  relative viability: 0.456
NCI-H460; first compound 158.11 µM
  relative viability: 0.115
NCI-H460; first compound 500 µM
  relative viability: 0.0075
ChaGo-K-1; first compound 5 µM
  relative viability: 0.489
ChaGo-K-1; first compound 15.81 µM
  relative viability: 0.517
ChaGo-K-1; first compound 50 µM
  relative viability: 0.514
ChaGo-K-1; first compound 158.11 µM
  relative viability: 0.274
ChaGo-K-1; first compound 500 µM
  relative viability: 0.161
NCI-H596; first compound 5 µM
  relative viability: 1.13
NCI-H596; first compound 15.81 µM
  relative viability: 0.965
NCI-H596; first compound 50 µM
  relative viability: 0.98
NCI-H596; first compound 158.11 µM
  relative viability: 0.866
NCI-H596; first compound 500 µM
  relative viability: 0.111
NCI-H1944; first compound 5 µM
  relative viability: 0.429
NCI-H1944; first compound 15.81 µM
  relative viability: 0.406
NCI-H1944; first compound 50 µM
  relative viability: 0.395
NCI-H1944; first compound 158.11 µM
  relative viability: 0.277
NCI-H1944; first compound 500 µM
  relative viability: 0.168
NCI-H2347; first compound 5 µM
  relative viability: 0.652
NCI-H2347; first compound 15.81 µM
  relative viability: 0.553
NCI-H2347; first compound 50 µM
  relative viability: 0.706
NCI-H2347; first compound 158.11 µM
  relative viability: 0.614
NCI-H2347; first compound 500 µM
  relative viability: 0.347
A-427; first compound 5 µM
  relative viability: 0.55
A-427; first compound 15.81 µM
  relative viability: 0.551
A-427; first compound 50 µM
  relative viability: 0.582
A-427; first compound 158.11 µM
  relative viability: 0.495
A-427; first compound 500 µM
  relative viability: 0.435
NCI-H1666; first compound 5 µM
  relative viability: 0.676
NCI-H1666; first compound 15.81 µM
  relative viability: 0.601
NCI-H1666; first compound 50 µM
  relative viability: 0.798
NCI-H1666; first compound 158.11 µM
  relative viability: 0.639
NCI-H1666; first compound 500 µM
  relative viability: 0.509
NCI-H520; first compound 5 µM
  relative viability: 0.48
NCI-H520; first compound 15.81 µM
  relative viability: 0.502
NCI-H520; first compound 50 µM
  relative viability: 0.428
NCI-H520; first compound 158.11 µM
  relative viability: 0.271
NCI-H520; first compound 500 µM
  relative viability: 0.149
NCI-H358; first compound 5 µM
  relative viability: 0.235
NCI-H358; first compound 15.81 µM
  relative viability: 0.2
NCI-H358; first compound 50 µM
  relative viability: 0.219
NCI-H358; first compound 158.11 µM
  relative viability: 0.136
NCI-H358; first compound 500 µM
  relative viability: 0.02
NCI-H441; first compound 5 µM
  relative viability: 0.261
NCI-H441; first compound 15.81 µM
  relative viability: 0.253
NCI-H441; first compound 50 µM
  relative viability: 0.231
NCI-H441; first compound 158.11 µM
  relative viability: 0.148
NCI-H441; first compound 500 µM
  relative viability: 0.0077
NCI-H1355; first compound 5 µM
  relative viability: 0.34
NCI-H1355; first compound 15.81 µM
  relative viability: 0.337
NCI-H1355; first compound 50 µM
  relative viability: 0.342
NCI-H1355; first compound 158.11 µM
  relative viability: 0.341
NCI-H1355; first compound 500 µM
  relative viability: 0.114
NCI-H322M; first compound 5 µM
  relative viability: 0.65
NCI-H322M; first compound 15.81 µM
  relative viability: 0.656
NCI-H322M; first compound 50 µM
  relative viability: 0.664
NCI-H322M; first compound 158.11 µM
  relative viability: 0.767
NCI-H322M; first compound 500 µM
  relative viability: 0.703
NCI-H1650; first compound 5 µM
  relative viability: 0.475
NCI-H1650; first compound 15.81 µM
  relative viability: 0.443
NCI-H1650; first compound 50 µM
  relative viability: 0.332
NCI-H1650; first compound 158.11 µM
  relative viability: 0.169
NCI-H1650; first compound 500 µM
  relative viability: 0.0363
NCI-H838; first compound 5 µM
  relative viability: 0.449
NCI-H838; first compound 15.81 µM
  relative viability: 0.437
NCI-H838; first compound 50 µM
  relative viability: 0.386
NCI-H838; first compound 158.11 µM
  relative viability: 0.253
NCI-H838; first compound 500 µM
  relative viability: 0.104
NCI-H3122; first compound 5 µM
  relative viability: 0.344
NCI-H3122; first compound 15.81 µM
  relative viability: 0.439
NCI-H3122; first compound 50 µM
  relative viability: 0.481
NCI-H3122; first compound 158.11 µM
  relative viability: 0.376
NCI-H3122; first compound 500 µM
  relative viability: 0.185
H3255; first compound 5 µM
  relative viability: 0.626
H3255; first compound 15.81 µM
  relative viability: 0.537
H3255; first compound 50 µM
  relative viability: 0.665
H3255; first compound 158.11 µM
  relative viability: 0.566
H3255; first compound 500 µM
  relative viability: 0.569
NCI-H1755; first compound 5 µM
  relative viability: 0.732
NCI-H1755; first compound 15.81 µM
  relative viability: 0.738
NCI-H1755; first compound 50 µM
  relative viability: 0.67
NCI-H1755; first compound 158.11 µM
  relative viability: 0.699
NCI-H1755; first compound 500 µM
  relative viability: 0.543
EKVX; first compound 5 µM
  relative viability: 0.29
EKVX; first compound 15.81 µM
  relative viability: 0.348
EKVX; first compound 50 µM
  relative viability: 0.423
EKVX; first compound 500 µM
  relative viability: 0.397
